Test results published in PMC7385433 (International Journal of Antimicrobial Agents, 2020).

Legend:
[1] = system: Burkholderia pseudomallei K96243; format: in vivo, BALB/c mice; conditions: for survival at 30 days post-infection: n = 5
[2] = not told; cited from earlier work
[3] = system: Burkholderia pseudomallei K96243; design: species or system Galleria mellonella; conditions: for larvae whose haemolymph was sterile of any bacteria / survival of Galleria larvae: in vivo
[4] = system: gyrase and topoisomerase IV; conditions: cited from earlier work
in vivo = conditions: female, BALB/c, mouse, ip, 15 mg/kg
[5] = in vivo
B. pseudomallei [6] = experiment: microbe, parasite or virus in culture; format: cell-based; conditions: Burkholderia pseudomallei, read-out: minimum inhibitory concentration (MIC)
B. pseudomallei [7] = conditions: ip; cited from earlier work

**Q.** Which “B. pseudomallei present in lungs of surviving mice” value ([1]; mouse, in vivo) does the source give for CC(C)(O/N=C(\C(=O)N[C@@H]1C(=O)N2C(C(=O)[O-])=C(C[n+]3ccccc3)CS[C@H]12)c1csc(N)n1)C(=O)O [ceftazidime] here?
**A.** two of three

**Q.** What about the “bacteria in spleen of surviving mice” value ([1]; mouse, in vivo) of the same compound?
**A.** > 1 × 10^7 CFU

**Q.** What about the “survival at 30 days post-infection” value [1] of the same compound?
**A.** 60%

**Q.** With CO[C@@H]1[C@@H](OC(=O)c2ccc(C)[nH]2)[C@@H](O)[C@H](Oc2ccc3c(O)c(NC(=O)c4ccc(O)c(CC=C(C)C)c4)c(=O)oc3c2Cl)OC1(C)C [clorobiocin] as the compound, how does the “membrane permeability compared with novobiocin” value [2] read?
**A.** improved membrane permeability

**Q.** And the “bacterial load in haemolymph (killing activity in vivo)” value (“bacterial load in haemolymph” below) [3]?
**A.** significantly reduced the bacterial load

**Q.** What about the “larvae whose haemolymph was sterile of any bacteria” value [3] of the same compound?
**A.** 100%

**Q.** What about the “survival of Galleria larvae” value [3] of the same compound?
**A.** all Galleria larvae survived

**Q.** What about the “potency as inhibitor of gyrase and topoisomerase IV relative to novobiocin” value [4] of the same compound?
**A.** more potent inhibitor

**Q.** With CO[C@@H]1[C@@H](OC(N)=O)[C@@H](O)[C@H](Oc2ccc3c(O)c(NC(=O)c4ccc(O)c(CC=C(C)C)c4)c(=O)oc3c2C)OC1(C)C [novobiocin] as the compound, how does the “bacterial load in haemolymph” value [3] read?
**A.** no significant killing activity

**Q.** And the “survival of Galleria larvae” value [3]?
**A.** no larvae treated with novobiocin survived longer than 24 h post-infection

**Q.** What about the AUC (in vivo) of the same compound?
**A.** 33.2 µM·h

**Q.** And the AUC(0-inf) (in vivo)?
**A.** 33.2 µM·h

**Q.** And the AUC(0-t) (in vivo)?
**A.** 33.2 µM·h

**Q.** What about the Cmax (in vivo) of the same compound?
**A.** 10.7 µM

**Q.** What about the Tmax (in vivo) of the same compound?
**A.** 1 h

**Q.** What about the half-life (in vivo; t1/2) of the same compound?
**A.** 168 min

**Q.** And the “effect of DL-tryptophan on drug accumulation in tissue” value [5]?
**A.** No significant effect on drug accumulation in adipose or haemolymphatic tissue

**Q.** What about the MIC (B. pseudomallei [6]) of the same compound?
**A.** < 10 µg/mL

**Q.** With coumermycin as the compound, how does the “bacterial load in haemolymph” value [3] read?
**A.** significantly reduced the bacterial load

**Q.** What about the “larvae whose haemolymph was sterile of any bacteria” value [3] of the same compound?
**A.** 60%

**Q.** What about the “survival of Galleria larvae” value [3] of the same compound?
**A.** all Galleria larvae survived

**Q.** What about the “activity against multiple strains of B. pseudomallei in vivo” value (B. pseudomallei [7]) of the same compound?
**A.** significant activity

**Q.** What about the “units with complete organ sterility” value ([1]; mouse, in vivo) of the same compound?
**A.** 40%

**Q.** And the “survival at 30 days post-infection” value [1]?
**A.** 40%
